Reference: patent US9170257B2 (priority 2012, dated 2015)
Like-named read-outs stand apart in the source and are kept apart here.

Assay: Tissue distribution of curcumin and THC at necropsy 15 minutes post-infusion
Set-up: species or system Beagle dogs
Settings: both sexes, beagle, dog, in vivo, 10 mg/kg; for Kp at 8 h: 8 hr infusion
Experimental: The test article will be administered to 8 Beagle dogs by intravenous infusion over two hours (Part A) or eight hours (Part B) as shown in Table 6.
Multiple samples of tissue weighing approximately 1 gram were removed and snap frozen in the presence or absence of phosphoric acid (H3PO4). For all tissue samples, the levels of curcumin and THC were determined using a method developed by the Bioanalytical Department at Nucro-Technics. […] Values that were below the limit of quantification were assigned a value of 0. […] Tissue distribution data was analyzed using, unless stated, the data from 4 dogs and are presented as the mean±standard error (S.E.).

SMILES: COc1cc(CCC(=O)CC(=O)CCc2ccc(O)c(OC)c2)ccc1O [THC, tetrahydrocurcumin]
- Kp at 8 h (H3PO4 stabilized, read-out: Kp [tissue]/[plasma], Striatum): 0.03
- Kp at 8 h (H3PO4 stabilized, read-out: Kp [tissue]/[plasma], Urinary Bladder): 0.0106
- concentration at 15 min (Average tissue concentration, Intestinal wall, Eight hour infusion, H3PO4 stabilized): 0.09 ng/g
- concentration at 15 min (Average tissue concentration, Intestinal wall, Two hour infusion, H3PO4 stabilized): 2.11 ng/g
- concentration at 15 min (Eight hour infusion, H3PO4 stabilized, read-out: Average tissue concentration, Bladder): 1.11 ng/g
- concentration at 15 min (Eight hour infusion, H3PO4 stabilized, read-out: Average tissue concentration, Brainstem): 3.02 ng/g
- concentration at 15 min (Eight hour infusion, H3PO4 stabilized, read-out: Average tissue concentration, Cortex): 0.49 ng/g
- concentration at 15 min (Eight hour infusion, H3PO4 stabilized, read-out: Average tissue concentration, Heart): 0.03 ng/g
- concentration at 15 min (Eight hour infusion, H3PO4 stabilized, read-out: Average tissue concentration, Hippocampus): 1.12 ng/g
- concentration at 15 min (Eight hour infusion, H3PO4 stabilized, read-out: Average tissue concentration, Kidney): 2.03 ng/g
- concentration at 15 min (Eight hour infusion, H3PO4 stabilized, read-out: Average tissue concentration, Liver): 2.24 ng/g
- concentration at 15 min (Eight hour infusion, H3PO4 stabilized, read-out: Average tissue concentration, Lung): 6.36 ng/g
- concentration at 15 min (Eight hour infusion, H3PO4 stabilized, read-out: Average tissue concentration, Muscle): 2.42 ng/g
- concentration at 15 min (Eight hour infusion, H3PO4 stabilized, read-out: Average tissue concentration, Pancreas): 1.34 ng/g
- concentration at 15 min (Eight hour infusion, H3PO4 stabilized, read-out: Average tissue concentration, Spleen): 0.42 ng/g
- concentration at 15 min (Eight hour infusion, H3PO4 stabilized, read-out: Average tissue concentration, Striatum): 3.13 ng/g
- Kp at 2 h (Kp [tissue]/[plasma], Intestinal Wall, 2 hr infusion, H3PO4 stabilized): 0.0003
- Kp at 8 h (Kp [tissue]/[plasma], Intestinal Wall, H3PO4 stabilized): 0.002
- concentration at 15 min (Table 14, 2 hour infusion, +H3PO4, read-out: Tissue analysis, Brainstem): 10.6 ng/g
- concentration at 15 min (Table 14, 2 hour infusion, +H3PO4, read-out: Tissue analysis, Cortex): 3.08 ng/g
- concentration at 15 min (Table 14, 2 hour infusion, +H3PO4, read-out: Tissue analysis, Hippocampus): 6.46 ng/g
- concentration at 15 min (Table 14, 2 hour infusion, +H3PO4, read-out: Tissue analysis, Liver): 4.58 ng/g
- concentration at 15 min (Table 14, 2 hour infusion, +H3PO4, read-out: Tissue analysis, Lung): 9.37 ng/g
- concentration at 15 min (Table 14, 2 hour infusion, +H3PO4, read-out: Tissue analysis, Pancreas): 0.91 ng/g
- concentration at 15 min (Table 14, 2 hour infusion, +H3PO4, read-out: Tissue analysis, Spleen): 1.6 ng/g
- concentration at 15 min (Table 14, 2 hour infusion, +H3PO4, read-out: Tissue analysis, Striatum): 11.1 ng/g
- concentration at 15 min (Table 14, 2 hour infusion, −H3PO4, read-out: Tissue analysis, Brainstem): 2.33 ng/g
- concentration at 15 min (Table 14, 2 hour infusion, −H3PO4, read-out: Tissue analysis, Cortex): 0.67 ng/g
- concentration at 15 min (Table 14, 2 hour infusion, −H3PO4, read-out: Tissue analysis, Hippocampus): 0.75 ng/g
- concentration at 15 min (Table 14, 2 hour infusion, −H3PO4, read-out: Tissue analysis, Liver): 2.41 ng/g
- concentration at 15 min (Table 14, 2 hour infusion, −H3PO4, read-out: Tissue analysis, Lung): 17.7 ng/g
- concentration at 15 min (Table 14, 2 hour infusion, −H3PO4, read-out: Tissue analysis, Pancreas): 2.01 ng/g
- concentration at 15 min (Table 14, 2 hour infusion, −H3PO4, read-out: Tissue analysis, Spleen): 1.35 ng/g
- concentration at 15 min (Table 14, 2 hour infusion, −H3PO4, read-out: Tissue analysis, Striatum): 6.21 ng/g
- concentration at 15 min (Table 15, 2 hour infusion, +H3PO4, read-out: Tissue analysis, Brainstem): 3.02 ng/g
- concentration at 15 min (Table 15, 2 hour infusion, +H3PO4, read-out: Tissue analysis, Cortex): 0.49 ng/g
- concentration at 15 min (Table 15, 2 hour infusion, +H3PO4, read-out: Tissue analysis, Hippocampus): 1.12 ng/g
- concentration at 15 min post-infusion (Table 15, 2 hour infusion, +H3PO4, read-out: Tissue analysis, Liver): 2.24 ng/g
- concentration at 15 min (Table 15, 2 hour infusion, +H3PO4, read-out: Tissue analysis, Lung): 6.36 ng/g
- concentration at 15 min (Table 15, 2 hour infusion, +H3PO4, read-out: Tissue analysis, Pancreas): 1.34 ng/g
- concentration at 15 min post-infusion (Table 15, 2 hour infusion, +H3PO4, read-out: Tissue analysis, Spleen): 0.42 ng/g
- concentration at 15 min (Table 15, 2 hour infusion, +H3PO4, read-out: Tissue analysis, Striatum): 3.13 ng/g
- concentration at 15 min (Table 15, 2 hour infusion, −H3PO4, read-out: Tissue analysis, Brainstem): 0.83 ng/g
- concentration at 15 min (Table 15, 2 hour infusion, −H3PO4, read-out: Tissue analysis, Cortex): 0.12 ng/g
- concentration at 15 min (Table 15, 2 hour infusion, −H3PO4, read-out: Tissue analysis, Hippocampus): 0.01 ng/g
- concentration at 15 min post-infusion (Table 15, 2 hour infusion, −H3PO4, read-out: Tissue analysis, Liver): 2.63 ng/g
- concentration at 15 min (Table 15, 2 hour infusion, −H3PO4, read-out: Tissue analysis, Lung): 10.8 ng/g
- concentration at 15 min (Table 15, 2 hour infusion, −H3PO4, read-out: Tissue analysis, Pancreas): 0.33 ng/g
- concentration at 15 min post-infusion (Table 15, 2 hour infusion, −H3PO4, read-out: Tissue analysis, Spleen): 0.32 ng/g
- concentration at 15 min (Table 15, 2 hour infusion, −H3PO4, read-out: Tissue analysis, Striatum): 1.12 ng/g
- concentration at 15 min (Tissue level, Intestinal Wall, 2 hour infusion, No H3PO4): 0.73 ng/g
- concentration at 15 min (Tissue level, Intestinal Wall, 2 hour infusion, Plus H3PO4): 2.12 ng/g
- concentration at 15 min (Tissue level, Intestinal Wall, 8 hour infusion, No H3PO4): 0.31 ng/g
- concentration at 15 min (Tissue level, Intestinal Wall, 8 hour infusion, Plus H3PO4): 0.21 ng/g
- concentration at 15 min (Two hour infusion, H3PO4 stabilized, read-out: Average tissue concentration, Bladder): 2.25 ng/g
- concentration at 15 min (Two hour infusion, H3PO4 stabilized, read-out: Average tissue concentration, Brainstem): 10.6 ng/g
- concentration at 15 min (Two hour infusion, H3PO4 stabilized, read-out: Average tissue concentration, Cortex): 3.08 ng/g
- concentration at 15 min (Two hour infusion, H3PO4 stabilized, read-out: Average tissue concentration, Heart): 0.68 ng/g
- concentration at 15 min (Two hour infusion, H3PO4 stabilized, read-out: Average tissue concentration, Hippocampus): 6.46 ng/g
- concentration at 15 min (Two hour infusion, H3PO4 stabilized, read-out: Average tissue concentration, Kidney): 4.25 ng/g
- concentration at 15 min (Two hour infusion, H3PO4 stabilized, read-out: Average tissue concentration, Liver): 4.58 ng/g
- concentration at 15 min (Two hour infusion, H3PO4 stabilized, read-out: Average tissue concentration, Lung): 9.37 ng/g
- concentration at 15 min (Two hour infusion, H3PO4 stabilized, read-out: Average tissue concentration, Muscle): 4.19 ng/g
- concentration at 15 min (Two hour infusion, H3PO4 stabilized, read-out: Average tissue concentration, Pancreas): 0.91 ng/g
- concentration at 15 min (Two hour infusion, H3PO4 stabilized, read-out: Average tissue concentration, Spleen): 1.6 ng/g
- concentration at 15 min (Two hour infusion, H3PO4 stabilized, read-out: Average tissue concentration, Striatum): 11.1 ng/g
